Assay results as given in paper PMC4165196, “Curcumin, a Natural Antioxidant, Acts as a Noncompetitive Inhibitor of Human RNase L in Presence of Its Cofactor 2-5A In Vitro” (BioMed Research International, 2014).

Molecular target: T1, human RNase L (Homo sapiens, UniProt Q05823)
T1 construct: gene RNASEL; full-length (741 a.a.) recombinant human RNase L, GST-RNase L fusion protein
T1 sequence (Q05823 1-741): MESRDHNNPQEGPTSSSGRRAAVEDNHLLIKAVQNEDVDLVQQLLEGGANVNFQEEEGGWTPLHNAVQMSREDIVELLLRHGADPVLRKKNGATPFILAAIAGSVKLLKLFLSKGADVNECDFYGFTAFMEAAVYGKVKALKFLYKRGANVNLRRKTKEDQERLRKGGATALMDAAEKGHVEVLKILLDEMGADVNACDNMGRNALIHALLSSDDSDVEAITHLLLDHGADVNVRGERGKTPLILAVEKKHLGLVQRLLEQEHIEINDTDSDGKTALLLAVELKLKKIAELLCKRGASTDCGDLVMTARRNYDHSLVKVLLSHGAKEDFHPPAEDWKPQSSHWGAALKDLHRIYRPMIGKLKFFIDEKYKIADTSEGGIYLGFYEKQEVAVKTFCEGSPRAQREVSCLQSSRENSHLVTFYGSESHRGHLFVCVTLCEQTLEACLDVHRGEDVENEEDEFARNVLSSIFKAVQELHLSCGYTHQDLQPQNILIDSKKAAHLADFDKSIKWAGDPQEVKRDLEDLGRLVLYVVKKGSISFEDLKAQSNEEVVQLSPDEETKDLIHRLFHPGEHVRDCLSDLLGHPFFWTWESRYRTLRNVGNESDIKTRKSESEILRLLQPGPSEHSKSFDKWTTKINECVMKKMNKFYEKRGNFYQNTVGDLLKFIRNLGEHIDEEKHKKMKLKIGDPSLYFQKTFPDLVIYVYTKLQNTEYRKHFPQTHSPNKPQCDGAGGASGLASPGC
Experiment: intrinsic fluorescence quenching titration (Hill fit); also noncompetitive inhibition of purified GST-RNase L RNA degradation with […]-5A, Ki […], biphasic dose response
Assay type: binding

Kd: 397 ± 18 nM
SMILES: COc1cc(/C=C/C(=O)CC(=O)/C=C/c2ccc(O)c(OC)c2)ccc1O [curcumin, 1,7-bis-[4 hydroxy-3-methoxy]-1,6 heptadiene-3,5-dione]
